Measurements taken from patent US7504407B2, “Compounds specific to adenosine A1 and A3 receptors and uses thereof” (OSI Pharmaceuticals, Inc., priority 2001, dated 2009).

Tests used:
[1] = target: T1, human A1 adenosine receptor (Homo sapiens, UniProt P30542); conditions: cited from earlier work
T1 sequence (P30542 1-326): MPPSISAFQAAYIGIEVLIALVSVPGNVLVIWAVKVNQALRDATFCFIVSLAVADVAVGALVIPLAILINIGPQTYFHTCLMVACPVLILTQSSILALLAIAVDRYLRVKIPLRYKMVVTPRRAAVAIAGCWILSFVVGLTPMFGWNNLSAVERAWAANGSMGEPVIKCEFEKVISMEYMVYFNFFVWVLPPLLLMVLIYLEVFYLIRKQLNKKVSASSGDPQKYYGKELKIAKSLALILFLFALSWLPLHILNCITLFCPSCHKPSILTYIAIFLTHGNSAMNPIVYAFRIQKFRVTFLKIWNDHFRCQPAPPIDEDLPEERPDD

[2] = target: T2, human A2a receptor subtype (Homo sapiens, UniProt P29274); assay: Adenosine 2a receptor subtype competition radioligand binding, [3H]CGS-21680, HEK293 membranes; conditions: @ 10 μM
T2 construct: expressed in transfected cells; host or cells: HEK-293 (Cadus clone #5)

[3] = target: T3, human A1 receptor subtype (Homo sapiens, UniProt P30542)
T3 sequence (P30542 1-326): T1 sequence (P30542 1-326)

[4] = target: T4, human A3 receptor subtype (Homo sapiens, UniProt P0DMS8); assay: Adenosine 3 receptor competition radioligand binding, [125I]AB-MECA, HEK293 membranes; conditions: for properties relative to compound 1720: A3 affinity, A3/A1 selectivity, solubility as in Table 3
T4 construct: expressed in transfected cells; host or cells: HEK293
T4 sequence (P0DMS8 1-318): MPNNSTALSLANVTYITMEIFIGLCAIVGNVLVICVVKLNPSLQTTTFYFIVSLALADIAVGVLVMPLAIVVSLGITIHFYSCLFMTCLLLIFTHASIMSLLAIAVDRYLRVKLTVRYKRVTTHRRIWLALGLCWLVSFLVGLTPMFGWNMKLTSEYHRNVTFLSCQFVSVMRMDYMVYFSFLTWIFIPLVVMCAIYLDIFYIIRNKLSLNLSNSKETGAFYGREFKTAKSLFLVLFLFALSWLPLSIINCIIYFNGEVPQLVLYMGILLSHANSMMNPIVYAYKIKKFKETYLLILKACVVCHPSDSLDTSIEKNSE

T2 sequence (P29274 whole entry): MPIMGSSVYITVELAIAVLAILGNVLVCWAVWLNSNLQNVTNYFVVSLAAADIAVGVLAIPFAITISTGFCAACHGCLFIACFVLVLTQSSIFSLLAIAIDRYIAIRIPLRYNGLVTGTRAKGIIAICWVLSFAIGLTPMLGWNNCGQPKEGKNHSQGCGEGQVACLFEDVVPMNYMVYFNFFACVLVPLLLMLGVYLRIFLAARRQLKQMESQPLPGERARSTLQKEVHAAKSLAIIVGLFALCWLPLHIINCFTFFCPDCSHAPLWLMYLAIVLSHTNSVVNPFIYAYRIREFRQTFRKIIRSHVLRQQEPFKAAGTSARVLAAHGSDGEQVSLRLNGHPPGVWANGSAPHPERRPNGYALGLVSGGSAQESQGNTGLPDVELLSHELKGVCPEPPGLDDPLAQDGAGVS

Row | Structure (SMILES) | melting point [°C] | properties relative to compound 1720 [4] | Binding Affinity for A3 receptor relative to compound 1720 [4] | also measured
1 | CC(Cc1ccccc1)Nc1ncnc2c1ncn2C1OC(CO)C(O)C1O (single isomer, unassigned; (-)) [R-PIA, (−)-N6-(2-phenylisopropyl)-adenosine] |  |  |  | reported affinity [1]: approximately 50 nM
2 | CNC(=O)NCCCNc1nc(-c2ccccc2)nc2[nH]c(C)c(C)c12 [Compound 1310] |  |  |  | % activity A2a [2]: 76%
3 | NC(=O)[C@@H]1C[C@@H](O)CN1c1nc(-c2ccccc2)nc2[nH]ccc12 [Compound 1631, (2S, 4R)-4-Hydroxy-1-(2-phenyl-7H-pyrrolo[2,3-d]pyrimidin-4-yl)-pyrrolidine-2-carboxylic acid amide methane sulfonate] |  |  |  | A1 receptor binding affinity relative to reference compounds 1318 or 1319 [3]: equaled or surpassed
4 | c1ccc(-c2nc(NCCc3cnc[nH]3)c3cc[nH]c3n2)cc1 [Compound 1720, [2-(3H-Imidazol-4-yl)-ethyl]-(2-phenyl-7H-pyrrolo[2,3-d]pyrimidin-4-yl)-amine] | 234 to 235 |  |  | A3 receptor binding affinity relative to reference compound 1308 ([4]; relative to reference compound 1308): greater than 10 times
5 | Clc1cccc(-c2nc(NCCc3cnc[nH]3)c3cc[nH]c3n2)c1 [Compound 1721] |  | superior | Higher | 

The next lines start with results.

Row | melting point [°C] | properties relative to compound 1720 [4] | Binding Affinity for A3 receptor relative to compound 1720 [4] | Structure (SMILES) | also measured
6 | 199 to 200 |  |  | Clc1cccc(-c2nc(NCCc3ccccn3)c3cc[nH]c3n2)c1 [Compound 1722] | 
7 | 183 to 185 |  |  | Clc1cccc(-c2nc(NCCCn3ccnc3)c3cc[nH]c3n2)c1 [Compound 1723] | 
8 |  | superior | Similar | Cc1cc2c(NCCc3c[nH]cn3)nc(-c3cccc(Cl)c3)nc2[nH]1 [Compound 1731] | 
9 |  | superior | Similar | c1ccc(-c2nc(N3CCc4nc[nH]c4C3)c3cc[nH]c3n2)cc1 [Compound 1733] | 
